Measurements reported in patent US9079868B2, “Selective glycosidase inhibitors and uses thereof” (Simon Fraser University, priority 2008, dated 2015).

Biological target: O-GlcNAcase (Homo sapiens (Human), UniProt O60502)
Assay: Determination of KI values for inhibition of O-GlcNAcase activity (pNP-GlcNAc substrate, Dixon plots)
Type: biochemical
Settings: PBS pH 7.4, 0.5 mM pNP-GlcNAc, 37° C., linear regression of a Dixon plot
Experimental: Assay for Determination of […] for Inhibition of O-GlcNAcase Activity
Experimental Procedure for Kinetic Analyses:
Enzymatic reactions are carried out in PBS buffer (pH 7.4) using pNP-GlcNAc as a substrate (0.5 mM) and monitored continuously at 37° C. at 400 nm using a Cary 3E UV-VIS spectrophotometer equipped with a Peltier temperature controller. Reactions are pre-heated in a 500 μL quartz cuvette for approximately 5 minutes followed by addition of 10 μL enzyme via syringe (final enzyme concentration 0.002 mg/mL). Reaction velocities are determined by linear regression of the linear region of the reaction progress curve between the first and third minutes. An inhibitor concentration range of ⅕ to 5 times K1 is used in each case. […] All K1 values are determined using linear regression of Dixon plots.

Sequence of O-GlcNAcase (O60502 whole entry): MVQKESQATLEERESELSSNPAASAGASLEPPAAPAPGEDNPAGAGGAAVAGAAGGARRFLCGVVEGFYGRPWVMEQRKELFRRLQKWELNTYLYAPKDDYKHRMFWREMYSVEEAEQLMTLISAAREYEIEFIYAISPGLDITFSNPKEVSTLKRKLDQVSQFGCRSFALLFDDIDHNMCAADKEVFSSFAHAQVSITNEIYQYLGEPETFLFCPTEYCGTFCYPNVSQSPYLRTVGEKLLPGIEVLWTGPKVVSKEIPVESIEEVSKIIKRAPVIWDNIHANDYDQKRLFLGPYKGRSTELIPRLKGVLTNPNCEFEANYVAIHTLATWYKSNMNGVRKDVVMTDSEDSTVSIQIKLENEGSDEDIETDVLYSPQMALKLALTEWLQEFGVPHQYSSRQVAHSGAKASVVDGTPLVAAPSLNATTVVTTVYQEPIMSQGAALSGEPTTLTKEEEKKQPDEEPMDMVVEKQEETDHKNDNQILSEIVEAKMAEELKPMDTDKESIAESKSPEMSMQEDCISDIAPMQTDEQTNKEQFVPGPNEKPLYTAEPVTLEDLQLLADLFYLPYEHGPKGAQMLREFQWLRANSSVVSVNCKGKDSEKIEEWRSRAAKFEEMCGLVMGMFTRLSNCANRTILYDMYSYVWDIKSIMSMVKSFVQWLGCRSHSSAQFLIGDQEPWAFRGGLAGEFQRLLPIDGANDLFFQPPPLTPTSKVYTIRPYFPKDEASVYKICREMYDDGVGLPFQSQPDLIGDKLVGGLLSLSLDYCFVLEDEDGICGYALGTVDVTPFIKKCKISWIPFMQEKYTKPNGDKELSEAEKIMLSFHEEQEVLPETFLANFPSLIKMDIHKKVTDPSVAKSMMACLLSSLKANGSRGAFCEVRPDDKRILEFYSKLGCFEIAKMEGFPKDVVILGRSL

Ki: 40 µM
Compound: CN(C)C1=N[C@@H]2[C@@H](O)[C@H](O)[C@@H](CO)[C@@H]2O1 [Compound 2, (3aR,4R,5R,6R,6aS)-2-(dimethylamino)-6-(hydroxymethyl)-4,5,6,6a-tetrahydro-3aH-cyclopenta[d]oxazole-4,5-diol]
